Experimental data taken from patent US9044474B2, “Compositions and methods for increasing drug efficacy in cancer” (The Ohio State University, priority 2010, dated 2015).
Structures can show the parent of a compound that is named as a salt.

How the values were obtained:
[1] = system: CLL cells; test: LC3-Lamp2 co-localization (autophagosome-lysosome fusion) by confocal microscopy in CLL cells; assay type: cell-based, human; conditions: CLL cells, 4 hours, flavopiridol 2 μM
Description: After 4 hours exposure to agents, cells were washed in phosphate-buffered saline (PBS) and made adherent on a microscope slide by centrifugation in a Cytospin3 (Shandon) centrifuge. Immediately after cytospin, cells were fixed in cold acetone. […] Nuclei were stained blue with DAPI (Vector Laboratories, Burlingame, Calif.). Images were taken using a 60× objective and 4× digital zoom with Olympus Fluoview 1000 Laser Scanning Confocal microscope at the Ohio State University Campus Microscopy and Imaging Facility. ATF6 antibody was purchased from LifeSpan Biosciences (Seattle, Wash.) and Nrf2 was from Santa Cruz Biotechnology (Santa Cruz, Calif.). Nuclei were evaluated for ATF6 and Nrf2 using confocal microscopy to collect Z stacks, approximately 45 slices per cell, 0.2 μm each.
LC3 intensity and number of dots per cell were both assessed in the fluorescence images. Integrated intensity was measured using Metamorph v.7.0. To calculate the number of “dots” (local extreme point in pixel-intensity profile at which a number of high-intensity pixels form a cluster), a Gaussian filter was first applied to reduce noise. Cells were enumerated electronically by an improved watershed-based algorithm. To quantify co-localization, two binary nuclei images—red (R) and green (G)—are obtained. […]

[2] = system: p62; test: p62 immunoblot in samples from CLL patients treated with flavopiridol; assay type: in vivo, human; conditions: samples at 4.5 hours post flavopiridol infusion
Description: In this trial, CLL cells were collected pre- and post-therapy 4.5 hours, day 1 (n=16). By confocal fluorescence microscopy, both increased autophagosome formation (P=0.0011) and fusion with lysosomes is observed (FIG. 3F). […] The level of autophagy, as assessed by LC3 fluorescence intensity, was overall greater in non-responders versus responders in both pre- and post-treatment samples (P=0.018); however, the increase in intensity at 4.5 hours post- vs. pre-treatment was only slightly higher for non-responders compared to responders (fold change of 2.51 vs. 1.82, P=0.3445). […] Collectively, these studies provide evidence that our in vitro observations are relevant to the clinical setting.
Proteins extracted from whole cell lysates (50 μg/lane) were separated on polyacrylamide gels and transferred on nitrocellulose membrane. Antibodies used for immunoblots included LC3, IRE1α, TRAF2, PI3K III, ATG4C, ATG5-12, UVRAG, Beclin-1 (Cell Signaling, Boston, Mass.), GAPDH, Nrf2, ASK1, ULK1 (Santa Cruz Biotechnology), and Bif-1, ATG14-Barkor (Sigma-Aldrich, St Louis, Mo.). Species-appropriate secondary antibodies were obtained from BioRad Laboratories (Hercules, Calif.). Following antibody incubations, proteins were detected using a chemiluminescent substrate (BioRad Laboratories). […] Quantification was done using FluorChem Q (Alpha Innotech, San Leandro Calif.).

[3] = system: Jurkat cell line; test: eIF2α phosphorylation immunoblot in cell lines (control); assay type: cell-based
Description: (§1) Proteins extracted from whole cell lysates (50 μg/lane) were separated on polyacrylamide gels and transferred on nitrocellulose membrane. Antibodies used for immunoblots included LC3, IRE1α, TRAF2, PI3K III, ATG4C, ATG5-12, UVRAG, Beclin-1 (Cell Signaling, Boston, Mass.), GAPDH, Nrf2, ASK1, ULK1 (Santa Cruz Biotechnology), and Bif-1, ATG14-Barkor (Sigma-Aldrich, St Louis, Mo.). Species-appropriate secondary antibodies were obtained from BioRad Laboratories (Hercules, Calif.). Following antibody incubations, proteins were detected using a chemiluminescent substrate (BioRad Laboratories). For co-immunoprecipitations, TrueBlot beads (eBiosciences, San Diego, Calif.) and One-hour IP Western kit (GenScript, Piscataway, N.J.) were used according to manufacturer protocols. Quantification was done using FluorChem Q (Alpha Innotech, San Leandro Calif.).

[4] = system: ATF6 at GRP78 promoter region; test: ChIP assay of ATF6 at GRP78 promoter in cells from CLL patients undergoing flavopiridol treatment; assay type: in vivo, human; conditions: CLL patient samples before and 4.5 hour after flavopiridol infusion
Description: In brief, cells were treated with 37% formaldehyde to ensure crosslinking of proteins to DNA. Cells were lysed and sonicated to shear the chromatin to fragments of approximately 500 bp. Sheared chromatin was incubated with ATF6 antibody (LifeSpan Biosciences, Seattle, Wash.), followed by precipitation, washing and reversing of the crosslinks Purified DNA was then analyzed by real-time quantitative PCR using primers to the GRP78 promoter region. Primers were designed using Primer 3 software and purchased from IDT (Coralville, Iowa).

[5] = system: JNK1 and p38MAPK; test: Immunoblot of phosphorylated JNK1 and p38MAPK in CLL cells in vitro; assay type: cell-based, human; conditions: flavopiridol 2 μM, thapsigargin 1 μM, F-ara-A 5 μM
Description: as §1

[6] = system: JNK1 and p38MAPK; test: Immunoblot of phosphorylated JNK1 and p38MAPK in samples from CLL patients treated with flavopiridol; assay type: in vivo, human; conditions: samples 4.5 hours following flavopiridol infusion
Description: as §1

[7] = system: CLL cells; test: Intracellular calcium in CLL cells; assay type: cell-based, human; conditions: CLL cells treated with flavopiridol
[8] = system: CLL patients; conditions: CLL patients treated with flavopiridol; cited from earlier work

CN1CC[C@H](c2c(O)cc(O)c3c(=O)cc(-c4ccccc4Cl)oc23)[C@H](O)C1 [flavopiridol, (cis-5,7-dihydroxy-2-(2-chlorophenyl)-8-[4-(3-hydroxy-1-methyl)-piperidin-yl]-1-benzopyran-4-one)hydrochloride]
autophagy flux by LC3-Lamp2 co-localization, agent alone [1]: unrestricted autophagy flux was demonstrated by co-localization of LC3 and Lamp2 | p62 protein expression [2]: a decrease in protein expression | eIF2α phosphorylation [3]: dramatic EIF2α phosphorylation | binding of GRP78 promoter region by ATF6 [4]: results were similar | phosphorylation of JNK1 and p38MAPK [5]: induced the phosphorylation of both JNK1 and p38MAPK | CLL patients with JNK1 and p38MAPK phosphorylation [6]: five of ten | intracellular calcium [7]: increase of intracellular calcium | CLL patients in whom drug resistance is usually observed [8]: approximately 40%
